This passage reports EC50 and IC50 results from patent publication US11267825B2 (AICURIS GMBH & CO. KG, priority 2017, dated 2022).

Molecules are shown by their SMILES. Bounds are passed on as bounds.

Experiment [1] concerns HBV. In words: Determination of HBV DNA from the supernatants of HepAD38 cells (anti-HBV activity). The class given is cell-based, hepatitis B virus. The note with it: Hepatitis B virus, 144 h; HBV DNA in HepAD38 supernatant at day 6; read-out: Cell Activity (EC50). In short, it runs like this: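 EC50 values were obtained by non-linear regression of HBV DNA copy numbers measured by qPCR against pCH-9/3091 plasmid standards. The DNA came from filtered supernatants collected on day 6. Before that, tetracycline-withdrawn HepAD38 cells had been exposed to serial half-log compound dilutions, with tetracycline-treated cells as the non-producing control.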

Experiment [2] deals with HBV core protein (UniProt P03146). The class given is biochemical. The note with it: read-out: Assembly Activity (IC50); BODIPY-FL labelled core protein, assembly started with NaCl, read after 6 min. The procedure, abridged: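 Compounds tested at 8 concentrations in 0.5-log steps from 100, 31.6 or 10 μM against 1.0–2.0 μM BODIPY-FL-labelled Cys150 core dimers (residues 1–149), 50 mM HEPES pH 7.5. NaCl ([…] final) triggered assembly; quenching read at 6 min, 477/525 nm, with 2.5 M and 0 M NaCl as controls; EC50 by nonlinear fit.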
HBV core protein, sequence (P03146 whole entry, looked up, the tested form may be a part): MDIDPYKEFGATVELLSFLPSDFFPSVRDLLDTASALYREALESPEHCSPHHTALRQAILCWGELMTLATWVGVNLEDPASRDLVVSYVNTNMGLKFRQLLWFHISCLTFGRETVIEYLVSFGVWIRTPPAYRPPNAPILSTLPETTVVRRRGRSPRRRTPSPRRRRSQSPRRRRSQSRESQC

The term EC50 denotes the concentration that produces a half-maximal response. The IC50 is the concentration that gives 50% inhibition. `COc1nc2c(s1)CN(C(=O)c1cc3ccccc3[nH]1)CC2` [Example 151, 2-{2-methoxy-4H,5H,6H,7H-[1,3]thiazolo[5,4-c]pyridine-5-carbonyl}-1H-indole]: the EC50 in experiment [1] lay within 1 to 10 µM. For the same molecule, the IC50 in experiment [2] is below 100 µM.

Consider `Cc1cccc2[nH]c(C(=O)N3CCc4nc(NCC5(CO)CC5)sc4C3)cc12` [Example 64, [1-({[5-(4-methyl-1H-indole-2-carbonyl)-4H,5H,6H,7H-[1,3]thiazolo[5,4-c]pyridin-2-yl]amino}methyl)cyclopropyl]methanol], for which, in experiment [1], the EC50 was below 1 µM. The IC50 in experiment [2] is below 5 µM.

Turning to `Nc1nc2c(s1)CN(C(=O)c1cc3c(Cl)cccc3[nH]1)CC2` [Example 210, 5-(4-chloro-1H-indole-2-carbonyl)-4H,5H,6H,7H-[1,3]thiazolo[5,4-c]pyridin-2-amine], the EC50 in experiment [1] was below 1 µM. For the same molecule, in experiment [2], the IC50 is below 5 µM.

On to `Nc1nc2c(s1)CN(C(=O)c1cc3ccc(Cl)c(F)c3[nH]1)CC2` [Example 407, 5-(6-chloro-7-fluoro-1H-indole-2-carbonyl)-4H,5H,6H,7H-[1,3]thiazolo[5,4-c]pyridin-2-amine], for which the EC50 in experiment [1] is below 1 µM. The IC50 in experiment [2] is below 5 µM.

As to `O=C(c1cc2c(F)cc(F)cc2[nH]1)N1CCc2nc(N[C@H]3CC[C@@H](O)CC3)sc2C1` [Example 344, (1s,4s)-4-{[5-(4,6-difluoro-1H-indole-2-carbonyl)-4H,5H,6H,7H-[1,3]thiazolo[5,4-c]pyridin-2-yl]amino}cyclohexan-1-ol], in experiment [1], the EC50 was below 1 µM. In experiment [2], the IC50 lay within 5 to 10 µM.

`O=C(c1cc2c(Cl)cccc2[nH]1)N1CCc2nc(NC3(CO)CCC3)sc2C1` [Example 224, (1-{[5-(4-chloro-1H-indole-2-carbonyl)-4H,5H,6H,7H-[1,3]thiazolo[5,4-c]pyridin-2-yl]amino}cyclobutyl)methanol]: the EC50 in experiment [1] was below 1 µM. In addition, the IC50 in experiment [2] was below 5 µM.

For the molecule `COCCC(=O)Nc1nc2c(s1)CN(C(=O)c1cc3ccccc3[nH]1)CC2` [Example 19, N-[5-(1H-indole-2-carbonyl)-4H,5H,6H,7H-[1,3]thiazolo[5,4-c]pyridin-2-yl]-3-methoxypropanamide], the EC50 in experiment [1] is below 1 µM. Further, the IC50 in experiment [2] was below 5 µM.

Regarding `O=C(c1cc2ccccc2[nH]1)N1CCc2nc(NCC3(O)CC3)sc2C1` [Example 405, 1-({[5-(1H-indole-2-carbonyl)-4H,5H,6H,7H-[1,3]thiazolo[5,4-c]pyridin-2-yl]amino}methyl)cyclopropan-1-ol], the EC50 in experiment [1] was below 1 µM. The IC50 in experiment [2] is below 5 µM.

On to `Nc1nc2c(s1)CN(C(=O)c1cc3ccc(F)cc3[nH]1)CC2` [Example 197, 5-(6-fluoro-1H-indole-2-carbonyl)-4H,5H,6H,7H-[1,3]thiazolo[5,4-c]pyridin-2-amine], for which, in experiment [1], the EC50 was below 1 µM. In addition, in experiment [2], the IC50 is below 5 µM.

With `CN1CCN(CCNc2nc3c(s2)CN(C(=O)c2cc4ccccc4[nH]2)CC3)CC1` [Example 181, 5-(1H-indole-2-carbonyl)-N-[2-(4-methylpiperazin-1-yl)ethyl]-4H,5H,6H,7H-[1,3]thiazolo[5,4-c]pyridin-2-amine], the EC50 in experiment [1] lay in the range of 1 to 10 µM. Further, the IC50 in experiment [2] is below 5 µM.

As to `CNC(=O)Nc1nc2c(s1)CN(C(=O)c1cc3ccccc3[nH]1)CC2` [Example 28, 1-[5-(1H-indole-2-carbonyl)-4H,5H,6H,7H-[1,3]thiazolo[5,4-c]pyridin-2-yl]-3-methylurea], the EC50 in experiment [1] is below 1 µM. Further, the IC50 in experiment [2] was below 5 µM.

As for `CC(C)(CO)CNc1nc2c(s1)CN(C(=O)c1cc3ccccc3[nH]1)CC2` [Example 221, 3-{[5-(1H-indole-2-carbonyl)-4H,5H,6H,7H-[1,3]thiazolo[5,4-c]pyridin-2-yl]amino}-2,2-dimethylpropan-1-ol], the EC50 in experiment [1] was below 1 µM. The IC50 in experiment [2] was below 5 µM.

On to `CN1CCOC(CNc2nc3c(s2)CN(C(=O)c2cc4ccccc4[nH]2)CC3)C1` (stereo not drawn) [Example 23, 5-(1H-indole-2-carbonyl)-N-[(4-methylmorpholin-2-yl)methyl]-4H,5H,6H,7H-[1,3]thiazolo[5,4-c]pyridin-2-amine], for which the half-maximal effective concentration (EC50) in experiment [1] was in the range of 1 to 10 µM. The IC50 in experiment [2] was in the range of 5 to 10 µM.

Take `O=C(c1cc2ccccc2[nH]1)N1CCc2nc(NCCO)sc2C1` [Example 157, 2-{[5-(1H-indole-2-carbonyl)-4H,5H,6H,7H-[1,3]thiazolo[5,4-c]pyridin-2-yl]amino}ethan-1-ol]: the EC50 in experiment [1] was below 1 µM. The IC50 in experiment [2] is below 5 µM.

`Nc1nc2c(s1)CN(C(=O)c1cc3c(Cl)c(Cl)ccc3[nH]1)CC2` [Example 176, 5-(4,5-dichloro-1H-indole-2-carbonyl)-4H,5H,6H,7H-[1,3]thiazolo[5,4-c]pyridin-2-amine]: the concentration giving a half-maximal response (EC50) in experiment [1] lay in the range of 1 to 10 µM. In addition, in experiment [2], the IC50 is 5 to 10 µM.

On to `CC(F)(F)c1cccc2[nH]c(C(=O)N3CCc4nc(NC(=O)C5CCOCC5)sc4C3)cc12` [Example 399, N-{5-[4-(1,1-difluoroethyl)-1H-indole-2-carbonyl]-4H,5H,6H,7H-[1,3]thiazolo[5,4-c]pyridin-2-yl}oxane-4-carboxamide], for which the EC50 in experiment [1] was 1 to 10 µM. For the same molecule, the IC50 in experiment [2] is below 5 µM.

As for `Nc1nc2c(s1)CN(C(=O)c1cc3cc(F)c(F)cc3[nH]1)CC2` [Example 159, 5-(5,6-difluoro-1H-indole-2-carbonyl)-4H,5H,6H,7H-[1,3]thiazolo[5,4-c]pyridin-2-amine], in experiment [1], the EC50 was below 1 µM. Besides, the IC50 in experiment [2] is below 5 µM.

In the case of `O=C(c1cc2c(F)c(F)ccc2[nH]1)N1CCc2nc(NC3(CO)CCC3)sc2C1` [Example 222, (1-{[5-(4,5-difluoro-1H-indole-2-carbonyl)-4H,5H,6H,7H-[1,3]thiazolo[5,4-c]pyridin-2-yl]amino}cyclobutyl)methanol], the EC50 in experiment [1] was below 1 µM. For the same molecule, in experiment [2], the IC50 is below 5 µM.

On to `NCc1nc2c(s1)CN(C(=O)c1cc3ccccc3[nH]1)CC2` [Example 18, [5-(1H-indole-2-carbonyl)-4H,5H,6H,7H-[1,3]thiazolo[5,4-c]pyridin-2-yl]methanamine], for which, in experiment [1], the EC50 is 1 to 10 µM. In experiment [2], the IC50 was below 100 µM.

In the case of `Nc1nc2c(s1)CN(C(=O)c1cc3c(F)c(F)c(F)cc3[nH]1)CC2` [Example 78, 5-(4,5,6-trifluoro-1H-indole-2-carbonyl)-4H,5H,6H,7H-[1,3]thiazolo[5,4-c]pyridin-2-amine], the half-maximal effective concentration (EC50) in experiment [1] was below 1 µM. The IC50 in experiment [2] is below 5 µM.

On to `O=C(c1cc2c(F)cc(F)cc2[nH]1)N1CCc2nc(NCCO)sc2C1` [Example 111, 2-{[5-(4,6-difluoro-1H-indole-2-carbonyl)-4H,5H,6H,7H-[1,3]thiazolo[5,4-c]pyridin-2-yl]amino}ethan-1-ol], for which the EC50 in experiment [1] was below 1 µM. Moreover, the IC50 in experiment [2] was below 5 µM.

`Cc1nc2c(s1)CN(C(=O)c1cc3c(F)cc(Cl)cc3[nH]1)CC2` [Example 165]: the EC50 in experiment [1] lay in the range of 1 to 10 µM. Also, the IC50 in experiment [2] is below 5 µM.

As to `Nc1nc2c(s1)CN(C(=O)c1cc3cc(F)cc(F)c3[nH]1)CC2` [Example 160, 5-(5,7-difluoro-1H-indole-2-carbonyl)-4H,5H,6H,7H-[1,3]thiazolo[5,4-c]pyridin-2-amine], the EC50 in experiment [1] is below 1 µM. For the same molecule, in experiment [2], the IC50 is below 5 µM.

As to `O=C(c1cc2c(Cl)c(F)ccc2[nH]1)N1CCc2nc(NCC3(O)CCC3)sc2C1` [Example 362, 1-({[5-(4-chloro-5-fluoro-1H-indole-2-carbonyl)-4H,5H,6H,7H-[1,3]thiazolo[5,4-c]pyridin-2-yl]amino}methyl)cyclobutan-1-ol], in experiment [1], the EC50 was below 1 µM. For the same molecule, in experiment [2], the IC50 was below 5 µM.

Regarding `CC(O)c1cccc2[nH]c(C(=O)N3CCc4nc(NCC5CCOC5)sc4C3)cc12` (stereo not drawn) [Example 244, 1-[2-(2-{[(oxolan-3-yl)methyl]amino}-4H,5H,6H,7H-[1,3]thiazolo[5,4-c]pyridine-5-carbonyl)-1H-indol-4-yl]ethan-1-ol], the EC50 in experiment [1] is below 1 µM. The IC50 in experiment [2] was below 100 µM.

Consider `O=C(c1cc2ccc(Cl)cc2[nH]1)N1CCc2nc(NCC3(O)CCC3)sc2C1` [Example 331, 1-({[5-(6-chloro-1H-indole-2-carbonyl)-4H,5H,6H,7H-[1,3]thiazolo[5,4-c]pyridin-2-yl]amino}methyl)cyclobutan-1-ol], for which the EC50 in experiment [1] was below 1 µM. Also, the IC50 in experiment [2] was in the range of 5 to 10 µM.

Turning to `O=C(c1cc2ccccc2[nH]1)N1CCc2nc(NCC3(O)CCOC3)sc2C1` (stereo not drawn) [Example 253, 3-({[5-(1H-indole-2-carbonyl)-4H,5H,6H,7H-[1,3]thiazolo[5,4-c]pyridin-2-yl]amino}methyl)oxolan-3-ol], the EC50 in experiment [1] is below 1 µM. Besides, in experiment [2], the IC50 is below 5 µM.

On to `Cc1nc2c(s1)CN(C(=O)c1cc3c(F)c(F)ccc3[nH]1)CC2` [Example 193, 4,5-difluoro-2-{2-methyl-4H,5H,6H,7H-[1,3]thiazolo[5,4-c]pyridine-5-carbonyl}-1H-indole], for which the EC50 in experiment [1] is below 1 µM. Moreover, the IC50 in experiment [2] was below 5 µM.

For the molecule `Cc1nc2c(s1)CN(C(=O)c1cc3c(F)ccc(F)c3[nH]1)CC2` [Example 191, 4,7-difluoro-2-{2-methyl-4H,5H,6H,7H-[1,3]thiazolo[5,4-c]pyridine-5-carbonyl}-1H-indole], the EC50 in experiment [1] was below 1 µM. Moreover, the IC50 in experiment [2] lay in the range of 5 to 10 µM.

Regarding `CN(C)c1nc2c(s1)CN(C(=O)c1cc3ccccc3[nH]1)CC2` [Example 204, 5-(1H-indole-2-carbonyl)-N,N-dimethyl-4H,5H,6H,7H-[1,3]thiazolo[5,4-c]pyridin-2-amine], in experiment [1], the EC50 is 1 to 10 µM. The IC50 in experiment [2] was below 100 µM.
